Data reported in patent US20150315218A1, “SALTS OF PRODRUGS OF PIPERAZINE AND SUBSTITUTED PIPERIDINE ANTIVIRAL AGENTS” (Bristol-Myers Squibb Company, priority 2004, published 2015).
Where a name gives a salt, the structure may show the parent alone. Read-outs that look alike come from different tables or passages of the source.

Assays:
[1] = test system: dog hepatocytes; assay: Hydrolysis of prodrug in hepatocytes (dog); format: in vitro ADME
Protocol: (§1) The in vitro intrinsic clearance of Ibb in hepatocytes (Clint) was calculated as follows: Clint(μL/min/million cells)=Rate/CE where Rate is the rate of metabolism in hepatocytes (pmol/min/million cells), and CE is the concentration of Ibb in the incubation. The in vitro intrinsic clearance of Icb in hepatocytes (Clint) was calculated as follows: Clint(μL/min/million cells)=Rate/CE where Rate is the rate of metabolism in hepatocytes (pmol/min/million cells), and CE is the concentration of Icb in the incubation.

[2] = test system: monkey hepatocytes; assay: Hydrolysis of prodrug in hepatocytes (monkey); format: in vitro ADME
Protocol: as §1

[3] = dog, 10 μM
Protocol: (§2) The stability of Iab was studied in fresh blood and serum from rat, dog, monkey and human (n=2). The blood was collected in vacutainers containing K2EDTA (Becton Dickinson, Franklin Lakes, N.J.). The serum was collected in vacutainers containing no anticoagulant. Iab was incubated at a starting concentration of approximately 10 μM for 60-90 min at 37° C. Serial samples were taken at the pre-determined times. Aliquots of blood samples (200 μL) were first mixed with 100 μL of water followed by 400 μL of acetonitrile. The serum samples (50 μL) were added into microtainers containing K2EDTA (Becton Dickinson, Franklin Lakes, N.J.) followed by the addition of 100 μL of acetonitrile. The supernatant was analyzed for both Iab and IVa by LC/MS/MS. The stability of Ibb was studied in fresh blood and serum from rat, dog, monkey and human (n=2). The blood was collected in vacutainers containing K2EDTA (Becton Dickinson, Franklin Lakes, N.J.). The serum was collected in vacutainers containing no anticoagulant. Ibb was incubated at a starting concentration of approximately 15 μM for 90 min at 37° C. Serial samples were taken at the pre-determined times. Aliquots of blood samples (200 μL) were first mixed with 100 μL of water followed by 400 μL of acetonitrile. The serum samples (50 μL) were added into microtainers containing K2EDTA (Becton Dickinson, Franklin Lakes, N.J.) followed by the addition of 100 μL of acetonitrile. […] The stability of Icb was studied in fresh blood and serum from rat, dog, monkey and human (n=2). The blood was collected in vacutainers containing K2EDTA (Becton Dickinson, Franklin Lakes, N.J.). The serum was collected in vacutainers containing no anticoagulant. Icb was incubated at a starting concentration of approximately 10 μM for 90 min at 37° C. Serial samples were taken at the pre-determined times. Aliquots of blood samples (200 μL) were first mixed with 100 μL of water followed by 400 μL of acetonitrile. The serum samples (50 μL) were added into microtainers containing K2EDTA (Becton Dickinson, Franklin Lakes, N.J.) followed by the addition of 100 μL of acetonitrile.

[4] = in vitro; details: dog, serum
Protocol: as §2

[5] = test system: HIV-1 T-tropic strain LAI; assay: Antiviral assay: HIV-1 LAI infection of MT-2 cells, reverse transcriptase readout (EC50, Table 48); format: cell-based; details: Human immunodeficiency virus 1, MT2; read-out: EC50-LAI
Source text: The materials and experimental procedures used to assess the anti-HIV activity of the parent compounds which are generated from the prodrugs in vivo are described below:
• The human T cell line MT-2 and PM1 (AIDS Research and Reference Reagent Program, National Institutes of Health) were maintained and propagated in Medium RPMI-1640 (Invitrogen, Carlsbad, Calif.), containing 10% fetal Bovine serum. (FBS, Sigma, St. Louis, Mo.).
• Laboratory strains of HIV-1—the T-tropic strain LAI was obtained through the AIDS Research and Reference Reagent Program, National Institutes of Health. It was amplified in MT-2 cells and titered using a virus yield assay (2). Detection was achieved through use of a reverse transcriptase assay (3), adapted for use with a Scintillation Proximity detection protocol (1) (Amersham Biosciences, Piscataway, N.J.).
• 1. Compounds stocks were prepared by dissolving in DMSO to 30 mM. For dilution plates, compounds were serially diluted 3-fold into DMSO, using 96-well polypropylene plates, so that the concentrations were 100-fold greater than the final assay concentration. For antiviral and cytotoxicity assays, 2 μl was added per well (1% final DMSO concentration). • 2. Compounds were added from dilution plates to 96 well tissue culture plates, containing 100 μl Medium RPMI-1640, containing 10% fetal bovine serum at a concentration of <20 μM. • 3. For antiviral assays, cells were infected at a multiplicity of infection of 0.005. After 1 h at 37° C., infected cells were diluted to 200,000 cells per ml in Medium RPMI-1640, containing 10% fetal bovine serum. 100 μl of this solution was added per well, giving a final volume of 200 μl. • 4. Plates were incubated at 37° C. in a humidified CO2 incubator and harvested after 5 days. • 5. Viral infections were monitored by measuring reverse transcriptase activity in the supernatants of infected wells as described above. The percent inhibition for each compound was calculated by quantifying the readout level in cells infected in the presence of each compound as a percentage of that observed for cells infected in the absence of compound and subtracting such a determined value from 100. • 6. An EC50 provides a method for comparing the antiviral potency of the compounds of this invention. The effective concentration for fifty percent inhibition (EC50) was calculated with the Microsoft Excel Xlfit curve fitting software. For each compound, curves were generated from percent inhibition calculated at 8 different concentrations by using a four paramenter logistic model (model 205).

[6] = Effect of food on oral absorption of IVa in dogs after Iab or IVa capsules; format: in vivo, dog; details: for AUC / Cmax / Tmax / half-life: dog, po, 20 mg/kg
Protocol: To study the effect of food on the oral absorption of IVa after administration of Iab and IVa, these two compounds were administered in capsules as solid to a group of three dogs in a cross-over fashion under overnight fasting and fed conditions. There was a one-week washout period between each study. Iab was administered at 200 mg per dog (ca 20 mg/kg) of IVa equivalent; IVa was administered in a clinical capsule formulation at 200 mg per dog (ca 20 mg/kg). In the studies where the dogs were fed, the following meal was prepared: 2 slices of bacon, 2 eggs, 2 pieces of toast with butter and jelly, 4 oz. hash browns and 8 oz. of whole milk. After homogenization using a laboratory blender, the meal was equally divided into five portions and kept frozen. Before the study, the meals were thawed and each dog was fed one portion.

[7] = Stability of prodrug in Tris-HCl buffer
Protocol: The stability of Iab was also evaluated, as described above, in Tris-HCl buffer (0.1 M, pH 7.5). The stability of Ibb was also evaluated, as described above, in Tris-HCl buffer (0.1 M, pH 7.5). The stability of Icb was also evaluated, as described above, in Tris-HCl buffer (0.1 M, pH 7.5).

[8] = Stability of prodrug in fresh EDTA blood (dog)
Protocol: as §2

[9] = Stability of prodrug in fresh EDTA blood (monkey); details: Monkey EDTA blood
Protocol: as §2

[10] = Stability (hydrolysis) of prodrug in fresh serum (monkey); details: Monkey Serum
Protocol: as §2

[11] = in vivo, dogs, IVa Clinical Form Capsules, Fasting
[12] = in vivo, dogs, IVa Clinical Form Capsules, Fed
[13] = plasma, IVa after Iab dry-filled capsules, Fasting
[14] = plasma, IVa after Iab dry-filled capsules, Fed
[15] = dogs, IVa Clinical Form Capsules (20 mg/kg)

## COc1cnc(-n2cnc(C)n2)c2c1c(C(=O)C(=O)N1CCN(C(=O)c3ccccc3)CC1)cn2COP(=O)(O)O [Icb, [3-[(4-benzoylpiperazin-1-yl)(oxo)acetyl]-4-methoxy-7-(3-methyl-1H-1,2,4-triazol-1-yl)-1H-pyrrolo[2,3-c]pyridin-1-yl]methyl dihydrogen phosphate, 2-amino-2-(hydroxymethyl)propane-1,3-diol salt (1:1)]
[1]
  hydrolysis in the presence of hepatocytes: hydrolyzed
[2]
  hydrolysis in the presence of hepatocytes: No turnover was observed
[3]; 0 min
  Icb: 10 µM
[3]; 15 min
  Icb: 9.7 µM
[3]; 90 min
  Icb: 6.9 µM
[4]
  half-life at 10 μM: 2.6 h

## O=C(C(=O)N1CCN(C(=O)c2ccccc2)CC1)c1c[nH]c2c(-n3ccnn3)ncc(F)c12 [IVb]
[5]
  EC50: < 1000 nM

## COc1ncc(OC)c2c(C(=O)C(=O)N3CCN(C(=O)c4ccccc4)CC3)c[nH]c12 [IVa, N-(benzoyl)-N′-[(4,7-dimethoxy-6-azaindol-3-yl)-oxoacetyl]piperazine]
[6]; in vivo, dogs, IVa Clinical Form Capsules (20 mg/kg), Fed
  AUC: 96 ± 10 µM·h
[6]; [11]
  Cmax: 1.2 ± 0.22 µM
  Tmax: 3.3 ± 1.2 h
[6]; [12]
  Cmax: 11 ± 0.99 µM
  Tmax: 4 h
[6]; [13]
  Cmax: 70 ± 12 µM
  Tmax: 2 h
  half-life: 4.2 ± 0.42 h
[6]; [14]
  Cmax: 130 ± 102 µM
  Tmax: 1.5 ± 0.87 h
  half-life: 3.2 ± 1 h
[6]; plasma, IVa in dogs after Iab dry-filled capsules (20 mg/kg of IVa equivalent), Fasting, n = 3
  AUC: 414 ± 70 µM·h
[6]; plasma, IVa in dogs after Iab dry-filled capsules (20 mg/kg of IVa equivalent), Fed
  AUC: 422 ± 57 µM·h
[6]; plasma, dogs, IVa Clinical Form Capsules (20 mg/kg), Fasting, n = 3
  AUC: 11 ± 1.4 µM·h
[6]; plasma, dogs, IVa Clinical Form Capsules, Fasting
  half-life: 5.3 ± 2.7 h
[6]; plasma, dogs, IVa Clinical Form Capsules, Fed
  half-life: 8 ± 3.1 h
[6]; dogs receiving IVa clinical capsule, high fat meal
  improvement in AUC and Cmax (exposure) in fed vs fasted dogs: 9 fold
[6]; [15]
  AUCtot Fed/Fasting Ratio: 9.0 ± 2.2
  Cmax Fed/Fasting Ratio: 9.1 ± 0.92
[5]
  EC50: < 1000 nM
[7]; Tris-HCl buffer (0.1 M, pH 7.5), 37°C, 0 min
  Iab / IVa Formed: 0.011 µM
[7]; Tris-HCl buffer, 0 min
  % IVa Formed (of starting concentration of Iab): 0.11%
[7]; Tris-HCl buffer, 20 min
  % IVa Formed (of starting concentration of Iab): 0.081%
  Iab / IVa Formed: 0.008 µM
[7]; Tris-HCl buffer, 40 min
  % IVa Formed (of starting concentration of Iab): 0.076%
  Iab / IVa Formed: 0.008 µM
[7]; Tris-HCl buffer, 60 min
  % IVa Formed (of starting concentration of Iab): 0.088%
  Iab / IVa Formed: 0.009 µM
[8]; Dog A EDTA blood (Table 15), 0 min
  % IVa Formed (of starting concentration of Iab): 0.30%
[8]; Dog A EDTA blood (Table 15), 20 min
  % IVa Formed (of starting concentration of Iab): 2.4%
[8]; Dog A EDTA blood (Table 15), 40 min
  % IVa Formed (of starting concentration of Iab): 4.1%
[8]; Dog A EDTA blood (Table 15), 60 min
  % IVa Formed (of starting concentration of Iab): 6.2%
[8]; Dog A EDTA blood (repeat), 0 min
  % IVa Formed (of starting concentration of Iab): 0.63%
[8]; Dog A EDTA blood (repeat), 15 min
  % IVa Formed (of starting concentration of Iab): 2.3%
[8]; Dog A EDTA blood (repeat), 30 min
  % IVa Formed (of starting concentration of Iab): 3.4%
[8]; Dog A EDTA blood (repeat), 45 min
  % IVa Formed (of starting concentration of Iab): 4.8%
[8]; Dog A EDTA blood (repeat), 60 min
  % IVa Formed (of starting concentration of Iab): 6.1%
[8]; Dog B EDTA blood, 0 min
  % IVa Formed (of starting concentration of Iab): 0.68%
[8]; Dog B EDTA blood, 15 min
  % IVa Formed (of starting concentration of Iab): 2.0%
[8]; Dog B EDTA blood, 30 min
  % IVa Formed (of starting concentration of Iab): 3.5%
[8]; Dog B EDTA blood, 45 min
  % IVa Formed (of starting concentration of Iab): 4.5%
[8]; Dog B EDTA blood, 60 min
  % IVa Formed (of starting concentration of Iab): 5.8%
[9]; 0 min
  % IVa Formed (of starting concentration of Iab): 0.13%
  Iab / IVa Formed: 0.011 µM
[9]; 20 min
  % IVa Formed (of starting concentration of Iab): 0.28%
  Iab / IVa Formed: 0.024 µM
[9]; 40 min
  % IVa Formed (of starting concentration of Iab): 0.48%
  Iab / IVa Formed: 0.041 µM
[9]; 60 min
  % IVa Formed (of starting concentration of Iab): 0.56%
  Iab / IVa Formed: 0.048 µM
[10]; 37°C, 0 min
  Iab / IVa Formed: 0.20 µM
[10]; 15 min
  Iab / IVa Formed: 0.48 µM
[10]; 30 min
  Iab / IVa Formed: 0.75 µM
[10]; 45 min
  Iab / IVa Formed: 1.2 µM
[10]; 60 min
  Iab / IVa Formed: 1.5 µM
[10]; 90 min
  Iab / IVa Formed: 2.0 µM

## COc1cnc(-n2cnc(C)n2)c2[nH]cc(C(=O)C(=O)N3CCN(C(=O)c4ccccc4)CC3)c12 [IVc]
[5]
  EC50: < 1000 nM
